Test results: US5457106A, “Pyridine derivatives, their production and use” (Takeda Chemical Industries, Ltd., priority 1991, dated 1995)
Read-outs that look alike come from different tables or passages of the source.

Key:
[1] = tested on: ICAM-1; assay: Adhesion protein expression inhibitory activity, ICAM-1; type: cell-based; settings: human umbilical vascular endothelial cells, TNF-α, 360 min
Method: (§1) Adhesion Protein Expression Inhibitory Activity The various concentrations of test compounds were added to the human umbilical cord-derived vascular endothelial cells [sold by Klabo] which were seeded in the gelatin coat plate and the mixture was incubated at 37° C. for 15 minutes. Then, the human tumor necrosis factor-α[TNF-α; sold by Genzyme] was added therein to the final concentration of 1 ng/ml and incubation was carried out at 37° C. for 3 hours for expression of ELAM-1 and for 6 hours for that of ICAM-I. After the reaction, the cells were fixed using glutaraldhyde and the expression amount of ELAM-1 and ICAM-1 was measured by the cell-ELISA method. That is, the expression was determined by […] the adhesion proteins on the cells in the system using anti-ELAM-1 antibody BBA-2 and anti-ICAM-1 antibody BBA4 as the first antibody as well as horseradish peroxidase-labeled rabbit anti-mouse IgG antibody as the second antibody.

[2] = tested on: acute renal failure induced by renal ischemia followed by reperfusion in rats; assay: Effect on acute renal failure induced by renal ischemia-reperfusion; type: in vivo, rat (Sprague-Dawley); settings: 50 mg/kg, orally, 20 hours of reperfusion
Method: Effect On Acute Renal Failure Induced By Renal Ischemia-Reperfusion Male Sprague-Dawley rats (6 to 7 weeks old) were anesthetized using pentobarbital sodium (50 mg/kg, i.p.) and bilateral renal arteries were completely occluded for 45 minutes followed by reperfusion. After 20 hours of the reperfusion, the blood was collected from the abdominal aorta under anesthesia and the blood urea nitrogen (BUN) was determined.

[3] = tested on: ART (antigen-responding T-cell); assay: In vitro ART (antigen-responding T-cell) proliferation test; type: cell-based, Lewis rat; settings: Rattus norvegicus, T-cell, read-out: % Inhibition of ART growth
[4] = biological target: T1, cyclooxygenase (Rattus norvegicus, UniProt Q63921); assay: Cyclooxygenase inhibitory activity (HHT formation from arachidonic acid in rat platelet-rich plasma); type: cell-based, rat (Jcl:wistar)
T1 construct: from tissue; host or cells: platelets in platelet-rich plasma from rat abdominal aorta blood (Jcl:wistar, male)
T1 sequence (Q63921 27-602): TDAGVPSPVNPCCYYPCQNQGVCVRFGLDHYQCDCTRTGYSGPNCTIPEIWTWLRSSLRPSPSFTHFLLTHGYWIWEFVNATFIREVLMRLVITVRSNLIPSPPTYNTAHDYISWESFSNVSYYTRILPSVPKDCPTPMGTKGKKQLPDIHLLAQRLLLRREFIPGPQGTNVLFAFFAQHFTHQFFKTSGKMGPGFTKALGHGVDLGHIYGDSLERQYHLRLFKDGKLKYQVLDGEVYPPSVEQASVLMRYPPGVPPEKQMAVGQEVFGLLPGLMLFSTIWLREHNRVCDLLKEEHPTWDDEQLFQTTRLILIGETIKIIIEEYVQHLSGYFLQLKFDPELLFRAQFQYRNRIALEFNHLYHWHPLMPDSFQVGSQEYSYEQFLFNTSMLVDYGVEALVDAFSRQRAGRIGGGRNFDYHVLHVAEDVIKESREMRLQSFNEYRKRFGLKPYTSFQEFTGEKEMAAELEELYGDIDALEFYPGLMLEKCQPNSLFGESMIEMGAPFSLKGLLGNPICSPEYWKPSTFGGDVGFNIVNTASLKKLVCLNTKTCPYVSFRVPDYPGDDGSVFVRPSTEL

[5] = tested on: Mouse phenylquinone writhing; assay: Mouse phenylquinone writhing inhibitory activity; type: in vivo, mouse (Slc: ICR); settings: Mus musculus, po, 20 min, 50 mg/kg, orally; read-out: Inhibitory percentage (phenylquinone writhing)
Summary of the method: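 Male ICR mice (4 weeks, 17–24 g) dosed orally with compound suspended in 5% gum arabic. After 30 min, 0.02% phenylquinone (0.1 ml/10 g) given i.p.; writhing and stretching responses counted over 20 min.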

[6] = tested on: Rat adjuvant arthritis; assay: Activity to rat adjuvant arthritis; type: in vivo, rat (SD or Lewis); settings: 50 mg/kg, day 0 to day 13
[7] = tested on: brewer's yeast induced pyrexia; assay: Antipyretic activity (brewer's yeast induced pyrexia); type: in vivo, rat (DS line); settings: orally; for Antipyretic activity, .increment. °C.: at peak time
Summary of the method: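 Male DS rats (7 weeks, 200-240 g) made febrile by s.c. 15% brewer's yeast 18 h before dosing; only animals at ≥38.5° C used. Compound given orally versus solvent control, with rectal temperature taken by thermistor hourly for 5 h post-dose.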

[8] = tested on: Rat carrageenin pedal edema; assay: Rat carrageenin pedal edema inhibitory activity; type: in vivo, rat (Jcl: SD); settings: Rattus norvegicus, po, 3 h, 50 mg/kg, orally, 3 hours after carrageenin; read-out: Inhibitory percentage (carrageenin pedal edema)
Summary of the method: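 Male Jcl:SD rats (6 weeks, 160-220 g) received test compound orally as a 5% gum arabic suspension, topped up with water to 5 ml/rat. One hour later 0.05 ml of 1% carrageenin was injected subcutaneously into the right hind foot pad. Edema volume was the foot volume increase 3 hours post-injection.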

[9] = tested on: PAF induced respiratory tract constriction; assay: PAF induced respiratory tract constriction inhibitory activity; type: in vivo, guinea pig (Hartley); settings: intravenously
From the text: PAF Induced Respiratory Tract Constriction Inhibitory Activity Male and female Hartley guinea pigs, weighing about 100 g, were used. The guinea pigs were fixed at a dorsal position under urethane anethesia (1.5 g/kg, i.p.). One leg of a cannula (having four legs) was inserted in the trachea and two of the other three legs were bound to the respirator (Harvard apparatus rodent respirator). The remaining one leg (side branch) was bound to the bronchospasm transducer 7.020 (Ugobasile). Under the conditions of 5 to 7 ml of air supply/time, 70 times/min. of supply time and 10 cm H2 O of pulmonary pressure load, the amount of over flow air was recorded on a Rectigraph (Rectigraph-8S, Saneissoki) via the transducer. After Gallamine […] treatment (1 mg/kg, i.v.), PAF was administered intravenously (1.0 μg/kg) and the maximum respiratory tract constriction response was observed after 30 seconds. Under these conditions, the inhibitory activity of the test compounds were examined.

[10] = tested on: Mouse acetic acid writhing; assay: Mouse acetic acid writhing inhibitory activity; type: in vivo, mouse (Slc: ICR); settings: Mus musculus, po, 20 min, orally, read-out: Inhibitory percentage (acetic acid writhing)
Method: Mouse Acetic Acid Writhing Inhibitory Activity
Ten male Slc: ICR mice, 4 weeks old, per 1 group were used. A test compound was administered orally, and after 30 minutes, 0.1 ml/10 g body weight of physiological saline containing 0.6% acetic acid was injected intraperitoneally. For 20 minutes, writhing (in agony condition) response by administration of acetic acid was counted regarding individual animals. The inhibitory percentage relative to the mean response counts of a control group was calculated regarding respective animals in a test compound administration group. The test compound was suspended in 5% gum arabic solution, and the administration volume was 0.2 ml/10 g.

[11] = biological target: T2, 5-Lipoxygenase (Rattus norvegicus, UniProt P12527); assay: 5-Lipoxygenase inhibitory activity in rat basophilic leukemia cells; type: cell-based
T2 construct: rat basophilic leukemia cell suspension; endogenous in cells
T2 sequence (P12527 1-673): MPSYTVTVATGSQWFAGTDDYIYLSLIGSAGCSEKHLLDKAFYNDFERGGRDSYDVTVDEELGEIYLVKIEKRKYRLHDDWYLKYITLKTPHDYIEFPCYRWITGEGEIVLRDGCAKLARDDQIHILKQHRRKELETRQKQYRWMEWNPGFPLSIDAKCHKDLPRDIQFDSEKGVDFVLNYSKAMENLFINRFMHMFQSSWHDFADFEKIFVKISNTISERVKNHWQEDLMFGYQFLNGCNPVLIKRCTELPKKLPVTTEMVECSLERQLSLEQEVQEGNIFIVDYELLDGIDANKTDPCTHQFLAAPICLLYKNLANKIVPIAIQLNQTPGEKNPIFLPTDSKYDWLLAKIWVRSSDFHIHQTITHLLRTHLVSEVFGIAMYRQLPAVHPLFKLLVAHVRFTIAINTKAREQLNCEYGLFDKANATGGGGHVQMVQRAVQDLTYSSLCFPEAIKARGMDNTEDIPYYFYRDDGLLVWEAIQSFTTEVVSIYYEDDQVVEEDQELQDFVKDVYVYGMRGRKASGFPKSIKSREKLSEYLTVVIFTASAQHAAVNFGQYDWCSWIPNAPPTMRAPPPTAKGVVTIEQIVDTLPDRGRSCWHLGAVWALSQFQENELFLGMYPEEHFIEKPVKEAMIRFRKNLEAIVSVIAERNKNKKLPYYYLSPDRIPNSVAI
Method: 5-Lipoxygenase Inhibitory Activity […] Then, 0.1 ml of mast cell medium containing 50 μg of arachidonic acid and 1 μg of calcium ionophore (A-23187) were added and the mixture was allowed to stand at 37° C. for 15 minutes. Ethanol (1 ml) was added thereto and the mixture was shaken well, and filtered (Membrane filter, 0.45 μm). […] As a control, the measurement was carried out according to the same manner except that 0.01 ml of the solvent used for dissolving the test compound was used in place of the test compound. The inhibitory percentage (%) was calculated from the following equation to obtain IC50.

[12] = tested on: ELAM-1; assay: Adhesion protein expression inhibitory activity, ELAM-1; type: cell-based; settings: 13 μM, human umbilical vascular endothelial cells, TNF-α; 180 min
Method: as §1

Row | Compound | Expression Inhibitory Potency, ICAM-1 ([1]; 30 μM) | Blood urea nitrogen [2] | inhibition at 1 µM [3] | inhibition at 10 µM [3] | Expression Inhibitory Potency, ICAM-1 ([1]; 13 μM) | Expression Inhibitory Potency, ELAM-1 [12] | other results
1 | O=C1SC(=Cc2cccs2)C(=O)N1CCCCSc1ccncc1 [Example 157, 4-[4-[5-(2-thienylmethylene)-2,4-thiazolidinedione]butylthio]pyridine] | 78% | 62.4 ± 7.0 mg/dL | -50% | 62% | – | – | –
2 | Cl.O=C(N(CCCSc1ccncc1)Cc1ccccc1)C(F)(F)F [Example 73, 4-[3-(N-benzyl-N-trifluoroacetylamino)propylthio]pyridine hydrochloride] | 42% | 68 ± 3 mg/dL | 23% | 82% | – | – | IC50 [4]: 2.8 µM; inhibition in vivo at 50 mg/kg [5]: 75%; Swelling inhibitory percentage [6]: 52%; Antipyretic activity, peak time ([7]; 50 mg/kg): 2 h; Antipyretic activity, .increment. °C. ([7]; 50 mg/kg): -0.65 °C
3 | O=c1c2ccccc2oc(=S)n1CCCSc1ccncc1 [Example 141, 3-[3-(4-pyridylthio)propyl]-2H-1,3-benzoxadine-2-thion-4(3H)-one] | 54% | – | -21% | 64% | – | – | Expression Inhibitory Potency, ICAM-1 ([1]; 3 μM): 21%; inhibition in vivo at 50 mg/kg [8]: 36%; Antipyretic activity, peak time ([7]; 12.5 mg/kg): 3 h; Antipyretic activity, .increment. °C. ([7]; 12.5 mg/kg): -1.60 °C; Antipyretic activity, peak time ([7]; 50 mg/kg): 3 h; Antipyretic activity, .increment. °C. ([7]; 50 mg/kg): -2.40 °C; Inhibitory activity (PAF induced respiratory tract constriction) ([9]; 3 mg/kg): 51.7%
4 | O=C1SC(=Cc2ccccc2)C(=O)N1CCCCSc1ccncc1 [Example 150, 4-[4-(5-benzylidene-2,4-thiazolidinedione)butylthio]pyridine] | 94% | 76.8 ± 16.9 mg/dL | -31% | 75% | – | – | inhibition in vivo at 50 mg/kg [10]: 54%; IC50 ([11]; 5-HETE, read-out: 5-Lipoxygenase inhibitory activity, 5-HETE IC50): 2.6 µM; IC50 ([11]; LTB4, read-out: 5-Lipoxygenase inhibitory activity, LTB4 IC50): 2.5 µM
5 | O=c1c2ccccc2n(CCCCSc2ccncc2)c(=O)n1CCCCSc1ccncc1 [Example 147, 1,3-bis[4-(4-pyridylthio)butyl]quinazolin-2,4(1H,3H)-dione] | – | – | 9% | 72% | 83% | 96% | inhibition in vivo at 50 mg/kg [10]: 46%; IC50 [4]: 1.8 µM; Inhibitory activity (PAF induced respiratory tract constriction) ([9]; 3 mg/kg): 50.7%
6 | CCCC=C1SC(=O)N(CCCCSc2ccncc2)C1=O [Example 171, 4-[4-(5-propylmethylene-2,4-thiazolidinedione)butylthio]pyridine] | – | 64 ± 11 mg/dL | 96% | 41% | 75% | 94% | –
7 | Cl.Cl.O=c1c2ccccc2n(CCCCSc2ccncc2)c(=S)n1CCCCSc1ccncc1 [Example 200, 1,3-bis[4-(4-pyridylthio)butyl]quinazoline-2(1H)-thion-4(3H)-one dihydrochloride] | – | – | – | – | 83% | 71% | Inhibitory activity (PAF induced respiratory tract constriction) ([9]; 10 mg/kg): 61.4%
